Measurements published in article PMC12491715 (Acta Pharmaceutica Sinica. B, 2025).

Legend:
Aqueous stability (UPLC) = format: physicochemical; conditions: for t1/2 in aqueous solution / k: PBS:EtOH = 80:20, 10 mmol/L; for k: pseudo-first order; for half-life: buffer, PBS:EtOH = 80:20, calculated half-lives only approximates, read-out: t1/2 in aqueous solution (converted)
Experimental: For the aqueous stability determination, UPLC analyses were performed as described under Chemistry–General Information. The method used a Waters Acquity UPLC® HSS C18 SB column (2.1 mm× 50 mm, 1.8 μm) thermostated at 40 °C, with: injection volume, 5 μL; flow rate, 0.4 mL/min; detector λ, 220 nm; mobile phase A: 0.1% TFA (v/v) in MilliQ water; mobile phase B: MeCN. Gradient: 0–5 min, 20%–100% B; 5–6 min, 20% B.
Compound stock solutions (100 mmol/L) were prepared in absolute EtOH, while the internal standard (caffeine) was dissolved in PBS (0.1 mg/mL). The aqueous stability solutions were prepared by mixing 1200 μL PBS with internal standard, 150 μL absolute EtOH, and 150 μL compound stock solution in a HPLC vial to give 10 mmol/L compound concentration in PBS/EtOH = 80:20, which was injected immediately and then at hourly intervals for 48 h. The analyte AUCs were normalized on internal standard AUCs and compared with the timepoint zero. For the rate calculation, pseudo-first order kinetics were assumed.
For investigation of compound 8 stability in an aqueous medium, its stock solution (10,000 mg/L) was prepared in EtOH. 15 μL of the stock solution was mixed with 60 μL of caffeine (2500 mg/L in EtOH) and 1425 μL of the respective aqueous solution/buffer to achieve final concentration of 100 mg/L with 5% ethanol content. The UPLC analysis was carried as described above.

hAChE = hAChE (Homo sapiens, UniProt P22303); assay: ChE IC50 determination, method of Ellman, hAChE; format: biochemical; conditions: for IC50 / remaining activity at 100 µM: after 5 min preincubation; for IC50: read-out: hAChE IC50±SD; for hAChE time-dependency observed: Yes/No: pre-incubation time varied; for remaining activity at 100 µM: residual activity at 100 μmol/L, read-out: hAChE RA±SD (residual activity)
Experimental: (§1) The inhibitory potencies of the compounds against the ChEs were determined using the method of Ellman following the procedure described previously. Briefly, compound stock solutions in DMSO were incubated with Ellman’s reagent and ChEs (final concentrations: 370 μmol/L Ellman’s reagent, approximately 1 nmol/L or 50 pmol/L hBChE or hAChE, respectively) in 0.1 mol/L sodium phosphate pH 8.0 for 5 min at 20 °C. For time-dependency measurements, the pre-incubation time was varied (1, 5, 15, 30 or 60 min). The reactions were started by the addition of the substrate (final concentration, 500 μmol/L butyrylthiocholine iodide or acetylthiocholine iodide for hBChE and hAChE, respectively). The final content of DMSO was always 1%. The increase in absorbance at 412 nm was monitored for 2 min using a 96-well microplate reader (Synergy HT, BioTek Instruments, VT, USA). The initial velocities in the presence (vi) and absence (v0) of the test compounds were calculated. The inhibitory potencies were expressed as the residual activities, according to Eq. (1):(1) RA = vi / v0
(§2) For IC50 determinations, at least seven different concentrations for each compound were used. The IC50 values were obtained by plotting the residual ChE activities against the applied inhibitor concentrations, with the experimental data fitted to a four-parameter logistic function (GraphPad Prism 9.4). Tacrine and donepezil were used as positive controls.

SH-SY5Y cells = assay: Neuroprotection assay against Aβ1–42, 7-AAD flow cytometry; format: cell-based, human; conditions: 5 μmol/L compound, 5 μmol/L fibrillar Aβ1–42, 48 h
Experimental: (§3) Cell culture and treatments The human neuroblastoma SH-SY5Y cell line was purchased from American Type Culture Collection (Manassas, VA, USA). Cells were cultured in Advanced Dulbecco’s modified Eagle’s medium (Gibco, Thermo Fisher Scientific, Waltham, MA, USA) supplemented with 10% fetal bovine serum (FBS, Gibco), 2 mmol/L L-glutamine, 50 U/mL penicillin and 50 μg/mL streptomycin (Sigma, St. Louis, MO, USA) in a humidified atmosphere of 95% air and 5% CO2 at 37 °C, and grown to 80% confluence. Prior to cell treatment, complete medium was replaced with serum-reduced medium (i.e., with 2% FBS). Compounds were prepared as a stock solution of 50 mmol/L in DMSO.
Neuroprotection assay The neuroprotective effect of compounds on cytotoxic effect of Aβ1–42 was determined with the fluorescent intercalator 7-aminoactinomycin D (7-AAD) assessed by flow cytometry. Prior to cell treatment, the peptide Aβ1–42 (Merck Millipore, Darmstadt, Germany) was dissolved in DMSO at a concentration of 1 mmol/L and was incubated at 100 μmol/L in 1 mol/L HCl at 37 °C for 24 h to induce Aβ aggregation. […] Cells were then analysed for cytotoxicity by flow cytometry on Attune NxT flow cytometer (Thermo Fisher Scientific). The percentage of 7AAD positive (7AADpos) cells was evaluated using FlowJo software (FlowJo, LLC., Ashland, OR, USA).

[1] = system: caspase-3 activity in SH-SY5Y cells; assay: Caspase-3 activity in lysates of Aβ1–42-treated cells; format: cell-based, human; conditions: 5 μmol/L compound, 5 μmol/L fibrillar Aβ1–42, 24 h
Experimental: as §3
Caspase-3 activity and Western blot analysis The activity of caspases-3 was determined in total cell lysates of the SH-SY5Y cells treated as described. […] Following cell treatment for 24 h, cell lysates were prepared, and the caspase-3 activity was assessed using the fluorescent peptide substrate N-acetyl-L-α-aspartyl-L-α-glutamyl-L-valyl-N-[2-oxo-4-(trifluoromethyl)-2H-1-benzopyran-7-yl]-L-α-asparagine (Ac-DEVD-AFC; Bachem). […] Immediately after the addition of the substrate, fluorescence was monitored continuously for 30 min at an excitation wavelength of 405 nm and an emission wavelength of 535 nm using a Tecan Safire[2] fluorescence microplate reader. […]

hBChE [2] = target: T1, hBChE (Homo sapiens, UniProt P06276); assay: ChE IC50 determination, method of Ellman, hBChE; format: biochemical; conditions: for IC50 / remaining activity at 100 µM: after 5 min preincubation; for IC50: read-out: hBChE IC50±SD; for hBChE time-dependency observed: Yes/No: pre-incubation time varied; for remaining activity at 100 µM: residual activity at 100 μmol/L, read-out: hBChE RA±SD (residual activity); for ChE inhibition of the leaving groups: ChEs (hBChE and hAChE)
Experimental: as §1, §2

hBChE [3] = target: T1, hBChE; assay: hBChE binding kinetics: carbamoylation and decarbamoylation, initial velocity measurements; format: biochemical
Experimental: The progress curves for the time courses of product formation for the hydrolysis of butyrylthiocholine iodide were measured on an Agilent Cary 3500 UV–VIS spectrophotometer with Compact Peltier (thermostated at 25 °C) at 412 nm using a 0.6 mL cuvette (optical path–0.5 cm). 30 mmol/L Tris buffer pH 7.0 with 1 mg/mL BSA and 0.02% NaN3 was used and all dilutions were done in glass vessels (note: dilute hBChE solutions rapidly lose activity, presumably due to adsorption to plastic, preventing meaningful decarbamoylation assays. In our hands, under the above conditions only, the diluted and stock solutions of hBChE were stable for at least a month at room temperature.). Total volume in the cuvette was always 500 μL, and enzyme solutions that gave upon dilution v0 = (dA/dt) ≈ 0.5 (for carbamoylation) and ≈ 1 for (for decarbamoylation) were used. For carbamoylation experiments, 0.5–1 μL of enzyme stock, 5 μL of compound solution, and 484 μL of buffer were preincubated for the specified time, then 10 μL of the mixture of 25 mmol/L Ellman’s reagent (DTNB) and 20 mmol/L butyrylthiocholine (large excess to prevent substrate depletion) were added, quickly mixed, and measurement started. […] The data analysis followed the literature[63]^,[98].

Sequence of hAChE (P22303 32-614): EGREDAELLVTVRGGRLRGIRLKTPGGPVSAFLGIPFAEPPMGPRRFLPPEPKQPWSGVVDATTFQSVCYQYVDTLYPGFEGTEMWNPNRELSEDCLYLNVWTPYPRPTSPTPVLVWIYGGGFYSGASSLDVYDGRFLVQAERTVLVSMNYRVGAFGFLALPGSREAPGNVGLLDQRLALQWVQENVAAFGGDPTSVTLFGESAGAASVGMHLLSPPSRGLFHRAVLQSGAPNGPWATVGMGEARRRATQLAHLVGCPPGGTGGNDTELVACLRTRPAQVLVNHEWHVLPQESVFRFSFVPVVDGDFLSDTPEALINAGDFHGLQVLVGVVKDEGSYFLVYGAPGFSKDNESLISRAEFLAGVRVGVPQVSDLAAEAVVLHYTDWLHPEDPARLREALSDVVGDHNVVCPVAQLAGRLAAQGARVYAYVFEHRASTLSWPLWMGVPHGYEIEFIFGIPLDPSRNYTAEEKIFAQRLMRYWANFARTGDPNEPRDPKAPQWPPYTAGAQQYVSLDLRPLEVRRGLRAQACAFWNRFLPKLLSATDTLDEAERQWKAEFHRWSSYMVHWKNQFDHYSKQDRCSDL
T1 sequence (P06276 29-602): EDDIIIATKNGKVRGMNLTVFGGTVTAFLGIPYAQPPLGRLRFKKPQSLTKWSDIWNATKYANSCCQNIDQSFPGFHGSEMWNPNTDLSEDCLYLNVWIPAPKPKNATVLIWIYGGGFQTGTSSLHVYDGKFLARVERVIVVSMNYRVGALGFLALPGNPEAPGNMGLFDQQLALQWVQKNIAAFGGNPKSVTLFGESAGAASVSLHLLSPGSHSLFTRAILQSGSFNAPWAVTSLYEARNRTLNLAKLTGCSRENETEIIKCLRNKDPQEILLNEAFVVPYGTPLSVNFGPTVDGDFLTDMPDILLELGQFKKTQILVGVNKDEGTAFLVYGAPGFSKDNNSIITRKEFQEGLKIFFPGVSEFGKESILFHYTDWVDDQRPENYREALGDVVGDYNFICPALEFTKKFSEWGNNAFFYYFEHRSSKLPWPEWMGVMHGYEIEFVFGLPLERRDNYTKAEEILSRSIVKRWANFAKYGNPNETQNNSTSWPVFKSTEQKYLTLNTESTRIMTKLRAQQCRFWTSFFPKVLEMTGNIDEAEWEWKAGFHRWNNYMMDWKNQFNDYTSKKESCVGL

| SMILES | IC50 (hAChE) | hAChE time-dependency observed: Yes/No (hAChE) | IC50 (hBChE [2]) | hBChE time-dependency observed: Yes/No (hBChE [2]) | remaining activity at 100 µM (hAChE) | remaining activity at 100 µM (hBChE [2]) | ChE inhibition of the leaving groups (hBChE [2]) | k (Aqueous stability (UPLC)) | also measured |
| --- | --- | --- | --- | --- | --- | --- | --- | --- | --- |
| CCC1(c2cn(C(=O)N(C)C)cn2)Cc2ccccc2C1 [Compound 6, 4-(2-Ethylindan-2-yl)-N,N-dimethyl-1H-imidazole-1-carboxamide] | 32800 nM | Yes | 14 ± 2 nM | Yes | – | – | – | – | t1/2 in aqueous solution (Aqueous stability (UPLC); during 48 h): stable; 7-AAD-positive cells after Aβ1–42 treatment (SH-SY5Y cells): significant reduction; caspase-3 activity after Aβ1–42 treatment [1]: significant reduction; selectivity for hBChE over hAChE (hBChE [2]): 2500 fold; Ki (hBChE [3]): 116 ± 3 nM; kcarb, carbamoylation (hBChE [3]; 25 °C): 9.0±2.5 min^–1; kdecarb, decarbamoylation (hBChE [3]; 25 °C): 3.59±0.28 ×10^–2 h^–1; t1/2, decarbamoylation (hBChE [3]; 25 °C): 0.804 ± 0.0625 days; ΔG25°C‡, carbamoylation (hBChE [3]; 25 °C): 18.6 ± 0.2 kcal/mol |
| CCC1(c2cn(C(=O)N3CCCCC3)cn2)Cc2ccccc2C1 [Compound 9, (4-(2-Ethylindan-2-yl)-1H-imidazol-1-yl)(piperidin-1-yl)methanone] | 7550 ± 2140 nM | Yes | 2.5 ± 2 nM | Yes | – | – | – | – | – |
| CCC1(c2cn(C(=O)N(C)Cc3ccccc3)cn2)Cc2ccccc2C1 [Compound 10, N-Benzyl-4-(2-ethylindan-2-yl)-N-methyl-1H-imidazole-1-carboxamide] | – | Yes | 53 ± 10 nM | Yes | 34% | – | – | – | – |
| CCC1(c2cn(C(=S)N(C)C)cn2)Cc2ccccc2C1 [Compound 11, 4-(2-Ethylindan-2-yl)-N,N-dimethyl-1H-imidazole-1-carbothioamide] | – | – | – | Yes | 69% | 49% | – | – | – |
| CCC1(c2cncn2C)Cc2ccccc2C1 [Compound 12, 5-(2-Ethylindan-2-yl)-1-methyl-1H-imidazole] | – | – | – | – | 74% | 67% | ineffective | – | – |
| CCC1(c2cn(C(=O)N(C)C)c[n+]2C)Cc2ccccc2C1.O=S(=O)([O-])C(F)(F)F [Compound 13, 1-(Dimethylcarbamoyl)-4-(2-ethylindan-2-yl)-3-methyl-1H-imidazol-3-ium trifluoromethanesulfonate] | 3190 ± 400 nM | Yes | 8.4 ± 4.6 nM | Yes | – | – | – | 0.05236 h–1 | t1/2 in aqueous solution (Aqueous stability (UPLC)): 0.55 days |
| CCC1(c2cn[nH]n2)Cc2ccccc2C1 [Compound 14, 4-(2-Ethylindan-2-yl)-2H-1,2,3-triazole] | – | – | – | – | 85% | 82% | ineffective | – | – |
| CCC1(c2cnn(C(=O)N(C)C)n2)Cc2ccccc2C1 [Compound 15, 4-(2-Ethylindan-2-yl)-N,N-dimethyl-2H-1,2,3-triazole-2-carboxamide] | 234 ± 46 nM | Yes | 1.9 ± 0.5 nM | Yes | – | – | – | 0.000982 h–1 | half-life (Aqueous stability (UPLC)): ~29 days |
| CCC1(c2nc[nH]n2)Cc2ccccc2C1 [Compound 16, 3-(2-Ethylindan-2-yl)-1H-1,2,4-triazole] | – | – | – | – | 83% | 89% | ineffective | – | – |
| CCC1(c2ncn(C(=O)N(C)C)n2)Cc2ccccc2C1 [Compound 17, 3-(2-Ethylindan-2-yl)-N,N-dimethyl-1H-1,2,4-triazole-1-carboxamide] | 2930 ± 1280 nM | Yes | 5 ± 1.2 nM | Yes | – | – | – | 0.000628 h–1 | half-life (Aqueous stability (UPLC)): ~46 days |
